Reference: patent US8921410B2, “Nicotinic acetylcholine receptor sub-type selective amides of diazabicycloalkanes” (Targacept, Inc., priority 2006, dated 2014)
Like-named read-outs stand apart in the source and are kept apart here.

How the values were obtained:
human α4β2 nAChR subtype = human α4β2 nAChR subtype (Homo sapiens (Human), UniProt P17787+P43681); experiment: Radioligand ([3H]nicotine) binding at α4β2 nAChR, SH-EP1/human α4β2 clonal cell membranes; conditions: read-out: Human α4β2 Ki
Experimental: Preparation of Membranes from SH-EP1/Human α4β2 Clonal Cells:
Cell pellets from 40 150 mm culture dishes were pooled, and homogenized by Polytron (Kinematica GmbH, Switzerland) in 20 milliliters of ice-cold preparative buffer. The homogenate was centrifuged at 48,000 g for 20 minutes at 4° C. The resulting pellet was re-suspended in 20 mL of ice-cold preparative buffer and stored at −20° C.
(§1) On the day of the assay, the frozen membranes were thawed and spun at 48,000×g for 20 min. The supernatant was decanted and discarded. The pellet was resuspended in Dulbecco's phosphate buffered saline (PBS, Life Technologies) pH 7.4 and homogenized with the Polytron for 6 seconds. Protein concentrations were determined using a Pierce BCA Protein Assay Kit, with bovine serum albumin as the standard (Pierce Chemical Company, Rockford, Ill.).
(§2) Tissue was rinsed 3 times in PBS, pH 7.4. Scintillation fluid was added to filters containing the washed tissue and allowed to equilibrate.
(§3) Data were expressed as disintegrations per minute (DPMs). Within each assay, each point had 2-3 replicates. The replicates for each point were averaged and plotted against the log of the drug concentration.

rat α4β2 nAChR subtype = rat α4β2 nAChR subtype (Rattus norvegicus (Rat), UniProt P09483+P12390); experiment: Radioligand ([3H]nicotine) binding at α4β2 nAChR, rat cortex membranes
Experimental: Preparation of Membranes from Rat Cortex:
(§4) Rats (female, Sprague-Dawley), weighing 150-250 g, were maintained on a 12 h light/dark cycle and were allowed free access to water and food supplied by PMI Nutrition International, Inc. Animals were anesthetized with 70% CO2, and then decapitated. Brains were removed and placed on an ice-cold platform. […] The homogenate was centrifuged at 18,000×g for 20 min at 4° C. and the resulting pellet was re-suspended in 20 volumes of ice-cold water. After 60 min incubation on ice, a new pellet was collected by centrifugation at 18,000×g for 20 min at 4° C. The final pellet was re-suspended in 10 volumes of buffer and stored at −20° C.
as §1, §2, §3

α7 nAChR subtype = α7 nAChR subtype (Rattus norvegicus (Rat), UniProt Q05941); experiment: Radioligand ([3H]MLA) binding at α7 nAChR, rat hippocampus membranes
Experimental: as §4, with “CO2,” for “CO2, and”, “in 10” for “in 20”
The binding of [^3H]MLA was measured using a modification of the methods of Davies et al., Neuropharmacol. […] [^3H]MLA (Specific Activity=25-35 Ci/mmol) was obtained from Tocris. The binding of [^3H]MLA was determined using a 2 h incubation at 21° C. Incubations were conducted in 48-well micro-titre plates and contained about 200 μg of protein per well in a final incubation volume of 300 μL. The incubation buffer was PBS and the final concentration of [^3H]MLA was 5 nM. The binding reaction was terminated by filtration of the protein containing bound ligand onto glass fiber filters (GF/B, Brandel) using a Brandel Tissue Harvester at room temperature. […] Each filter was washed with PBS (3×1 mL) at room temperature. Non-specific binding was determined by inclusion of 50 μM non-radioactive MLA in selected wells.
The inhibition of [^3H]MLA binding by test compounds was determined by including seven different concentrations of the test compound in selected wells. Each concentration was replicated in triplicate. IC50 values were estimated as the concentration of compound that inhibited 50 percent of specific [^3H]MLA binding.

[1] = [3H]nicotine 5 nM, SH-EP1/human α4β2 membranes
[2] = [3H]nicotine 5 nM, rat cortex membranes
[3] = did not bind sufficiently in HTS at α7 to warrant Ki determination
[4] = [3H]MLA 5 nM, rat hippocampus membranes

α7 nAChR subtype, sequence (Q05941 23-502): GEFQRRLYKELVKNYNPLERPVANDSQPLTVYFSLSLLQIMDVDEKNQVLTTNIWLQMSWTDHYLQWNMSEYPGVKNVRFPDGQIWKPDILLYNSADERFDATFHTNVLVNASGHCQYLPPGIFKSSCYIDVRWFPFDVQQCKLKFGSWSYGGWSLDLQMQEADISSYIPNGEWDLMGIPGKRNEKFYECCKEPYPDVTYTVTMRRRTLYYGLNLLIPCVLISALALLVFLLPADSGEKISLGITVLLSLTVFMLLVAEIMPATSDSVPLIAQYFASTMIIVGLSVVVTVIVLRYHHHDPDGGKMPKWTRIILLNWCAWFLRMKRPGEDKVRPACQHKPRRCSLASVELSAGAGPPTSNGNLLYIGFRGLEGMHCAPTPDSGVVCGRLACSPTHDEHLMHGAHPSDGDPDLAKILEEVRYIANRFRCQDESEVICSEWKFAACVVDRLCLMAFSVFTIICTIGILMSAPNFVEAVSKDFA
human α4β2 nAChR subtype, sequence (P43681 29-627): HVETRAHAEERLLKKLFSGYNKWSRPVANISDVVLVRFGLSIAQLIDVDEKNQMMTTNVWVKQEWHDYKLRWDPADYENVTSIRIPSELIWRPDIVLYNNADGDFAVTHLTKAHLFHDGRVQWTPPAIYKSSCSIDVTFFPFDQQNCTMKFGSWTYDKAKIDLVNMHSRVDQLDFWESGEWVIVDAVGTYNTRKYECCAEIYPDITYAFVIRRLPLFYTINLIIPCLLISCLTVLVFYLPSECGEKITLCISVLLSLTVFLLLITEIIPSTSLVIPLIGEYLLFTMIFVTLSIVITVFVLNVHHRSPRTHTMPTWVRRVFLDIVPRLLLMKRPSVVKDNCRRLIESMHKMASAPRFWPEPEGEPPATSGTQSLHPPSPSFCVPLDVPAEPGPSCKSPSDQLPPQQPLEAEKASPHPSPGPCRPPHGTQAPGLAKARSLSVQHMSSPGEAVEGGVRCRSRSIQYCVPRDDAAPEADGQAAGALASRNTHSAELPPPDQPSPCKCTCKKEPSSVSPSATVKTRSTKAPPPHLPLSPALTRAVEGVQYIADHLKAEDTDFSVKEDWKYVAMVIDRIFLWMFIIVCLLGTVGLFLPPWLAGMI
human α4β2 nAChR subtype, sequence (P17787 26-502): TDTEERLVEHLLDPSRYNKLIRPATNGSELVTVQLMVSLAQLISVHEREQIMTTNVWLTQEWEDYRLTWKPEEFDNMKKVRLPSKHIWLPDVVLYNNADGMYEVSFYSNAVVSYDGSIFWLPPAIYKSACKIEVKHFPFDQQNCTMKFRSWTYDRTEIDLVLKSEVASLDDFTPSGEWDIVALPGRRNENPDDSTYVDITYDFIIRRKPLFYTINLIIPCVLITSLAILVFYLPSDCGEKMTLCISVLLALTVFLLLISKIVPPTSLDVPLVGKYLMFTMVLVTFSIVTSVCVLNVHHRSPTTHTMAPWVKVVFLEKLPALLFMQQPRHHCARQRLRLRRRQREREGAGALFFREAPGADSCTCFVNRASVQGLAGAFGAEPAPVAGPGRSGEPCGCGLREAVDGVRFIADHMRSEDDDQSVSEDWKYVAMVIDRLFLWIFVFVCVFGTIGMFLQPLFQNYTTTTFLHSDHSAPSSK
rat α4β2 nAChR subtype, sequence (P09483 31-630): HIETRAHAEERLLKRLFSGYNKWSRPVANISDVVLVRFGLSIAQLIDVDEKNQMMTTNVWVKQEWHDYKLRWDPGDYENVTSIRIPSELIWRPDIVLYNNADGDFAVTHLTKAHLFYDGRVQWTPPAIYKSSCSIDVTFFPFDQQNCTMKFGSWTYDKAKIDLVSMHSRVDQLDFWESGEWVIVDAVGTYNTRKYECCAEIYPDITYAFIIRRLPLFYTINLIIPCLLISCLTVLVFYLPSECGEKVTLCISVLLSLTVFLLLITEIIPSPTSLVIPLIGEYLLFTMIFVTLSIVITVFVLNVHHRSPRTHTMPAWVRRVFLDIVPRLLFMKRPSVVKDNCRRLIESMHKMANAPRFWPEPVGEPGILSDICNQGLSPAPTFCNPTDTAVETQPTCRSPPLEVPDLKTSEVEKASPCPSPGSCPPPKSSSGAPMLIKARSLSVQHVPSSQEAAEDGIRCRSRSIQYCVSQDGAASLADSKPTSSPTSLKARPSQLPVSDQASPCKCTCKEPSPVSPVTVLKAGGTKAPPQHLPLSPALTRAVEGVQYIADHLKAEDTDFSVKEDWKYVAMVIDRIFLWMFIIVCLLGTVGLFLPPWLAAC
rat α4β2 nAChR subtype, sequence (P12390 25-500): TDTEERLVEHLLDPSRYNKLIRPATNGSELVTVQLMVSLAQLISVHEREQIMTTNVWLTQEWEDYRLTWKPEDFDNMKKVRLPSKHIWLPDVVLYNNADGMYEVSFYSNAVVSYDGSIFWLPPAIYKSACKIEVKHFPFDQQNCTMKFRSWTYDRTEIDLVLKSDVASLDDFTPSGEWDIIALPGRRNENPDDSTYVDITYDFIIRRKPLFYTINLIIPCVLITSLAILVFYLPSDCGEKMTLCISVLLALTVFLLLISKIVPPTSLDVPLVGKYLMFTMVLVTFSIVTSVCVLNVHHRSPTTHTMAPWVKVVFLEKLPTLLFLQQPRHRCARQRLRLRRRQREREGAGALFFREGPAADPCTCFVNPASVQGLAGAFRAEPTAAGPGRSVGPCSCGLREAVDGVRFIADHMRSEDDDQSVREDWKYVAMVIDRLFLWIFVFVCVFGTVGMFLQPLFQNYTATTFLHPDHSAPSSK

| SMILES | Ki (human α4β2 nAChR subtype; [1]) [nM] | Ki (rat α4β2 nAChR subtype; [2]) [nM] | α7 high through-put screening outcome (Ki not determined) (α7 nAChR subtype; [3]) | Ki (α7 nAChR subtype) [µM] | Ki (rat α4β2 nAChR subtype) [nM] | Ki (α7 nAChR subtype; [4]) [µM] | α7 high through-put screening outcome (Ki not determined) (α7 nAChR subtype) | Ki (human α4β2 nAChR subtype) [nM] |
| --- | --- | --- | --- | --- | --- | --- | --- | --- |
| O=C(c1ccncc1)N1CC2CNCC2C1 (centres unmarked) | 160 | 26 | ND; failed HTS | – | – | – | – | – |
| O=C(c1ccc(Br)o1)N1CC2CNCC2C1 (centres unmarked) | 73 | 54 | – | 12 | – | – | – | – |
| O=C(c1ccoc1)N1CC2CNCC2C1 (centres unmarked) | 220 | – | – | – | 53 | 3.1 | – | – |
| O=C(c1ccc([N+](=O)[O-])o1)N1CC2CNCC2C1 (centres unmarked) | 31 | 35 | – | – | – | 2.9 | – | – |
| COc1cc(C(=O)N2CC3CNCC3C2)on1 (centres unmarked) | 19 | 19 | – | – | – | 3.5 | – | – |
| O=C(c1occc1Br)N1CC2CNCC2C1 (centres unmarked) | 1.5 | – | – | – | 1.5 | 12 | – | – |
| Cc1ccoc1C(=O)N1CC2CNCC2C1 (centres unmarked) | 54 | 44 | – | – | – | 25 | – | – |
| O=C(c1ccc(C#Cc2ccccc2)o1)N1CC2CNCC2C1 (centres unmarked) | 43 | 230 | – | – | – | 3.2 | – | – |
| Cc1ccc(C(=O)N2CC3CNCC3C2)o1 (centres unmarked) | 28 | – | – | 23 | 130 | – | – | – |
| O=C(c1cc(Br)no1)N1CC2CNCC2C1 (centres unmarked) | 44 | 17 | ND; failed HTS | – | – | – | – | – |
| O=C(c1cc(Br)co1)N1CC2CNCC2C1 (centres unmarked) | 18 | 29 | ND; failed HTS | – | – | – | – | – |
| COc1coc(C(=O)N2CC3CNCC3C2)c1OC (centres unmarked) | 40 | 140 | ND; failed HTS | – | – | – | – | – |
| O=C(c1cc(-c2cc(F)cc(F)c2)co1)N1CC2CNCC2C1 (centres unmarked) | 24 | 54 | ND; failed HTS | – | – | – | – | – |
| O=C(c1cc(-c2ccccc2)co1)N1CC2CNCC2C1 (centres unmarked) | 86 | 260 | – | – | – | 12 | – | – |
| O=C(c1cc(-c2ccoc2)co1)N1CC2CNCC2C1 (centres unmarked) | 95 | 110 | ND; failed HTS | – | – | – | – | – |
| Cc1cc(C(=O)N2CC3CNCC3C2)no1 (centres unmarked) | 84 | 150 | ND; failed HTS | – | – | – | – | – |
| Cc1ncoc1C(=O)N1CC2CNCC2C1 (centres unmarked) | 9.2 | 15 | – | – | – | 210 | – | – |
| Cc1nocc1C(=O)N1CC2CNCC2C1 (centres unmarked) | 14 | 24 | – | – | – | 56 | – | – |
| Cc1cc(C(=O)N2CC3CNCC3C2)on1 (centres unmarked) | 31 | 32 | ND; failed HTS | – | – | – | – | – |
| Cc1occc1C(=O)N1CC2CNCC2C1 (centres unmarked) | 29 | 61 | – | – | – | 160 | – | – |
| O=CNc1ccc(C(=O)N2CC3CNCC3C2)o1 (centres unmarked) | 63 | 53 | ND; failed HTS | – | – | – | – | – |
| COc1ccoc1C(=O)N1CC2CNCC2C1 (centres unmarked) | 100 | 353 | ND; failed HTS | – | – | – | – | – |
| Cc1cc(C(F)(F)F)c(C(=O)N2CC3CNCC3C2)o1 (centres unmarked) | 45 | 1000 | ND; failed HTS | – | – | – | – | – |
| O=C(c1cc(C(F)(F)F)co1)N1CC2CNCC2C1 (centres unmarked) | 36 | 320 | ND; failed HTS | – | – | – | – | – |
| Cc1oc(C(=O)N2CC3CNCC3C2)cc1Br (centres unmarked) | 22 | – | ND; failed HTS | – | 20 | – | – | – |
| C=Cc1ccoc1C(=O)N1CC2CNCC2C1 (centres unmarked) | 51 | 140 | ND; failed HTS | – | – | – | – | – |
| CCCCC#Cc1coc(C(=O)N2CC3CNCC3C2)c1 (centres unmarked) | 21 | 43 | ND; failed HTS | – | – | – | – | – |

| SMILES | Ki (human α4β2 nAChR subtype; [1]) [nM] | Ki (rat α4β2 nAChR subtype; [2]) [nM] | α7 high through-put screening outcome (Ki not determined) (α7 nAChR subtype; [3]) | Ki (α7 nAChR subtype) [µM] | Ki (rat α4β2 nAChR subtype) [nM] | Ki (α7 nAChR subtype; [4]) [µM] | α7 high through-put screening outcome (Ki not determined) (α7 nAChR subtype) | Ki (human α4β2 nAChR subtype) [nM] |
| --- | --- | --- | --- | --- | --- | --- | --- | --- |
| O=C(c1occc1Cl)N1CC2CNCC2C1 (centres unmarked) | 2.4 | 2.8 | ND; failed HTS | – | – | – | – | – |
| O=C(c1ccc(F)o1)N1CC2CNCC2C1 (centres unmarked) | 16 | 8.3 | ND; failed HTS | – | – | – | – | – |
| O=C(c1cc(Br)c(Br)o1)N1CC2CNCC2C1 (centres unmarked) | – | – | ND; failed HTS | – | – | – | – | – |
| O=C(c1occc1F)N1CC2CNCC2C1 (centres unmarked) | 27 | 35 | – | – | – | – | ND; failed HTS | – |
| N#Cc1ccoc1C(=O)N1CC2CNCC2C1 (centres unmarked) | – | – | – | – | 25 | – | ND; failed HTS | 14 |
| O=C(c1cc(Cl)co1)N1CC2CNCC2C1 (centres unmarked) | 9.7 | 21 | ND; failed HTS | – | – | – | – | – |
| O=C(c1ccon1)N1CC2CNCC2C1 (centres unmarked) | 90 | 89 | ND; failed HTS | – | – | – | – | – |
| O=C(c1cc(F)co1)N1CC2CNCC2C1 (centres unmarked) | 21 | 36 | ND; failed HTS | – | – | – | – | – |
| C#Cc1ccc(C(=O)N2CC3CNCC3C2)o1 (centres unmarked) | 48 | 140 | ND; failed HTS | – | – | – | – | – |
| N#Cc1ccc(C(=O)N2CC3CNCC3C2)o1 (centres unmarked) | – | 50 | ND; failed HTS | – | – | – | – | 40 |
| Cc1cc(F)c(C(=O)N2CC3CNCC3C2)o1 (centres unmarked) | 14 | – | ND; failed HTS | – | 65 | – | – | – |
| O=C(c1ccno1)N1CC2CNCC2C1 (centres unmarked) | 69 | 43 | – | – | – | – | ND; failed HTS | – |
| O=C(c1occc1Br)N1CC2CNCC(C2)C1 | – | 79 | ND; failed HTS | – | – | – | – | 17 |
| O=C(c1ccc(Br)o1)N1CC2CNCC(C2)C1 | 51 | – | ND; failed HTS | – | 41 | – | – | – |
| Cc1ccc(C(=O)N2CC3CNCC(C3)C2)o1 | 42 | 100 | – | – | – | – | ND; failed HTS | – |
| COc1cc(C(=O)N2CC3CNCC(C3)C2)on1 | 180 | – | ND; failed HTS | – | 33 | – | – | – |
| O=C(c1cc(Br)no1)N1CC2CNCC(C2)C1 | – | 5.9 | ND; failed HTS | – | – | – | – | 18 |
| CC(=O)Nc1ccc(C(=O)N2CC3CNCC(C3)C2)o1 | 210 | 87 | ND; failed HTS | – | – | – | – | – |
| Cc1cc(C(=O)N2CC3CNCC(C3)C2)no1 | – | – | ND; failed HTS | – | 68 | – | – | 96 |
| Cc1cc(C(=O)N2CC3CNCC(C3)C2)on1 | 47 | – | ND; failed HTS | – | 29 | – | – | – |
| O=C(c1cc(C2CC2)on1)N1CC2CNCC(C2)C1 | 83 | – | ND; failed HTS | – | 25 | – | – | – |
| O=C(c1occc1Cl)N1CC2CNCC(C2)C1 | 29 | – | ND; failed HTS | – | 96 | – | – | – |
| O=C(c1cc(Br)c(Br)o1)N1CC2CNCC(C2)C1 | – | – | ND; failed HTS | – | – | – | – | – |
| O=C(c1cc(Cl)co1)N1CC2CNCC(C2)C1 | 5.2 | – | ND; failed HTS | – | 13 | – | – | – |
| Cc1oc(C(=O)N2CC3CNCC(C3)C2)cc1Br | 5.2 | – | ND; failed HTS | – | 7.5 | – | – | – |
| N#Cc1ccc(C(=O)N2CC3CNCC(C3)C2)o1 | – | – | ND; failed HTS | – | 35 | – | – | 8.7 |
